Results from US9895338B1, “Cobalt-polypyridyl complex for treatment of cancer, a pharmaceutical composition and a kit comprising it” (Macau University of Science and Technology, priority 2016, dated 2018).

Tests used:
[1] = tested on: LLC-1 (lung cancer); assay: MTT cytotoxicity assay, LLC-1; assay type: cell-based; details: LLC-1, MTT, 72 h
Procedure: (§1) All prepared cobalt-polypyridyl complexes were dissolved in DMSO at a final concentration of 50 mmol/L and stored at −20° C. before use. Cytotoxicity was assessed by using the 3-(4,5-dimethylthiazol-2-yl)-2,5-diphenyltetrazolium bromide (MTT) (5.0 mg/ml) assay as previously described (Wong, V. K. et al., Cell Death Dis, 2013, 4, e720). Briefly, 4×10^3 cells per well were seeded in 96-well plates before drug treatments. After overnight culture, the cells were then exposed to different concentrations of selected compounds (0.039-100 μmol/L) for 72 h. Cells without drug treatment were used as control. Subsequently, MTT (10 μL) solution was added to each well and incubated at 37° C. for 4 h followed by the addition of 100 μL solubilization buffer (10% SDS in 0.01 mol/L HCl) and overnight incubation. A570 nm was then determined in each well on the next day. The percentage of cell viability was calculated using the following formula: Cell viability (%)=Atreated/Acontrol×100. Data were obtained from three independent experiments. Cells include HeLa cells (cervical cancer), MCF-7 (breast cancer), H1299, H1975, A549 and LLC-1 (lung cancer), HepG2 and Hep3B (liver cancer) and LO2 (normal human hepatocytes).

[2] = tested on: HepG2 (liver cancer); assay: MTT cytotoxicity assay, HepG2; assay type: cell-based; details: 72 h
Procedure: as §1

[3] = tested on: OV2008 cervical cancer cells; assay: MTT cytotoxicity, OV2008 (cisplatin-sensitive); assay type: cell-based; details: 72 h
Procedure: as §1, with “experiments.” for “experiments. Cells include HeLa cells (cervical cancer), MCF-7 (breast cancer), H1299, H1975, A549 and LLC-1 (lung cancer), HepG2 and Hep3B (liver cancer) and LO2 (normal human hepatocytes).”
(§2) Cisplatin-sensitive or -resistant A2780, OV2008 and C13 cancer cells were provided by Prof. Benjamin Tsang (Department of Obstetrics and Gynecology and Department of Cellular and Molecular Medicine, University of Ottawa, Canada). HCT116 p53^+/+ and p53^−/− isogenic human colon cancer cells were provided by Professor Bert Vogelstein (Ludwig Center at Johns Hopkins, Howard Hughes Medical Institute, USA). All media were supplemented with 10% fetal bovine serum and the antibiotics penicillin (50 U/ml) and streptomycin (50 μg/ml; Invitrogen, Paisley, Scotland, UK). All cell cultures were incubated at 37° C. in a 5% humidified CO2 incubator.

[4] = tested on: H1299 (lung cancer); assay: MTT cytotoxicity assay, H1299; assay type: cell-based, human; details: 72 h
Procedure: as §1

[5] = tested on: cisplatin-sensitive A2780 ovarian cancer cells; assay: MTT cytotoxicity, cisplatin-sensitive A2780; assay type: cell-based; details: 72 h
Procedure: as §1, with “experiments.” for “experiments. Cells include HeLa cells (cervical cancer), MCF-7 (breast cancer), H1299, H1975, A549 and LLC-1 (lung cancer), HepG2 and Hep3B (liver cancer) and LO2 (normal human hepatocytes).”
as §2

[6] = tested on: H1975 (lung cancer); assay: MTT cytotoxicity assay, H1975; assay type: cell-based; details: 72 h
Procedure: as §1

[7] = tested on: Taxol-resistant HCT8 cancer cells; assay: MTT cytotoxicity, taxol-resistant HCT8; assay type: cell-based; details: for IC50: HCT8, MTT, 72 h; for Resistant Factor: HCT8, IC50 taxol-resistant over IC50 taxol-sensitive
Procedure: as §1, with “experiments.” for “experiments. Cells include HeLa cells (cervical cancer), MCF-7 (breast cancer), H1299, H1975, A549 and LLC-1 (lung cancer), HepG2 and Hep3B (liver cancer) and LO2 (normal human hepatocytes).”
(§3) All cells were obtained from the American Type Culture Collection (Rockville, Md., USA) unless otherwise specified. Immortalized wild-type and Atg7-deficient mouse embryonic fibroblasts (MEFs) were provided by Professor Masaaki Komatsu (Juntendo University, School of Medicine, Japan). Taxol-resistant types of A549, MCF-7, HCT-8 cancer cells, cisplatin-resistant SGC7901 cancer cells were purchased from KeyGEN BioTECH, China.

[8] = tested on: cisplatin-sensitive SGC-7901 gastric cancer cells; assay: MTT cytotoxicity, cisplatin-sensitive SGC-7901; assay type: cell-based; details: SGC-7901, MTT, 72 h
Procedure: as §1, with “experiments.” for “experiments. Cells include HeLa cells (cervical cancer), MCF-7 (breast cancer), H1299, H1975, A549 and LLC-1 (lung cancer), HepG2 and Hep3B (liver cancer) and LO2 (normal human hepatocytes).”

[9] = tested on: Taxol-sensitive A549 cancer cells; assay: MTT cytotoxicity, taxol-sensitive A549; assay type: cell-based; details: 72 h
Procedure: as §1, with “experiments.” for “experiments. Cells include HeLa cells (cervical cancer), MCF-7 (breast cancer), H1299, H1975, A549 and LLC-1 (lung cancer), HepG2 and Hep3B (liver cancer) and LO2 (normal human hepatocytes).”

[10] = tested on: cisplatin-resistant SGC-7901 gastric cancer cells; assay: MTT cytotoxicity, cisplatin-resistant SGC-7901; assay type: cell-based; details: for IC50: SGC-7901, MTT, 72 h; for Resistant Factor: SGC-7901, cisplatin-resistant over cisplatin-sensitive
Procedure: as §1, with “experiments.” for “experiments. Cells include HeLa cells (cervical cancer), MCF-7 (breast cancer), H1299, H1975, A549 and LLC-1 (lung cancer), HepG2 and Hep3B (liver cancer) and LO2 (normal human hepatocytes).”
as §3

[11] = tested on: Hep 3B (liver cancer); assay: MTT cytotoxicity assay, Hep3B; assay type: cell-based; details: 72 h
Procedure: as §1

[12] = tested on: Taxol-sensitive MCF-7 cancer cells; assay: MTT cytotoxicity, taxol-sensitive MCF-7; assay type: cell-based; details: MCF-7, MTT, 72 h
Procedure: as §1, with “experiments.” for “experiments. Cells include HeLa cells (cervical cancer), MCF-7 (breast cancer), H1299, H1975, A549 and LLC-1 (lung cancer), HepG2 and Hep3B (liver cancer) and LO2 (normal human hepatocytes).”

[13] = tested on: MCF-7 (breast cancer); assay: MTT cytotoxicity assay, MCF-7; assay type: cell-based; details: MCF-7, MTT, 72 h
Procedure: as §1

[14] = tested on: HCT116 p53^+/+ colon cancer cells; assay: MTT cytotoxicity, HCT116 p53+/+; assay type: cell-based, human; details: 72 h
Procedure: as §1, with “experiments.” for “experiments. Cells include HeLa cells (cervical cancer), MCF-7 (breast cancer), H1299, H1975, A549 and LLC-1 (lung cancer), HepG2 and Hep3B (liver cancer) and LO2 (normal human hepatocytes).”
as §2

[15] = tested on: HeLa cells (cervical cancer); assay: MTT cytotoxicity assay, HeLa; assay type: cell-based; details: 72 h
Procedure: as §1

[16] = tested on: Taxol-resistant MCF-7 cancer cells; assay: MTT cytotoxicity, taxol-resistant MCF-7; assay type: cell-based; details: for IC50: MCF-7, MTT, 72 h; for Resistant Factor: MCF-7, IC50 taxol-resistant over IC50 taxol-sensitive
Procedure: as §1, with “experiments.” for “experiments. Cells include HeLa cells (cervical cancer), MCF-7 (breast cancer), H1299, H1975, A549 and LLC-1 (lung cancer), HepG2 and Hep3B (liver cancer) and LO2 (normal human hepatocytes).”
as §3

[17] = tested on: HCT116 p53^−/− colon cancer cells; assay: MTT cytotoxicity, HCT116 p53-/-; assay type: cell-based, human; details: for Resistant Factor: HCT116 p53^−/− over HCT116 p53^+/+; for IC50: MTT, 72 h
Procedure: as §1, with “experiments.” for “experiments. Cells include HeLa cells (cervical cancer), MCF-7 (breast cancer), H1299, H1975, A549 and LLC-1 (lung cancer), HepG2 and Hep3B (liver cancer) and LO2 (normal human hepatocytes).”
as §2

[18] = tested on: cisplatin-resistant A2780 ovarian cancer cells; assay: MTT cytotoxicity, cisplatin-resistant A2780; assay type: cell-based; details: for IC50: A2780, MTT, 72 h; for Resistant Factor: A2780, cisplatin-resistant over cisplatin-sensitive
Procedure: as §1, with “experiments.” for “experiments. Cells include HeLa cells (cervical cancer), MCF-7 (breast cancer), H1299, H1975, A549 and LLC-1 (lung cancer), HepG2 and Hep3B (liver cancer) and LO2 (normal human hepatocytes).”
as §2

[19] = tested on: OV2008/C13 cervical cancer cells; assay: MTT cytotoxicity, OV2008/C13 (cisplatin-resistant); assay type: cell-based; details: for IC50: OV2008/C13, MTT, 72 h; for Resistant Factor: OV2008/C13 over OV2008
Procedure: as §1, with “experiments.” for “experiments. Cells include HeLa cells (cervical cancer), MCF-7 (breast cancer), H1299, H1975, A549 and LLC-1 (lung cancer), HepG2 and Hep3B (liver cancer) and LO2 (normal human hepatocytes).”
as §2

[20] = tested on: Taxol-resistant A549 cancer cells; assay: MTT cytotoxicity, taxol-resistant A549; assay type: cell-based; details: for IC50: A549, MTT, 72 h; for Resistant Factor: A549, IC50 taxol-resistant over IC50 taxol-sensitive
Procedure: as §1, with “experiments.” for “experiments. Cells include HeLa cells (cervical cancer), MCF-7 (breast cancer), H1299, H1975, A549 and LLC-1 (lung cancer), HepG2 and Hep3B (liver cancer) and LO2 (normal human hepatocytes).”
as §3

[21] = tested on: A549 (lung cancer); assay: MTT cytotoxicity assay, A549; assay type: cell-based; details: 72 h
Procedure: as §1

[22] = tested on: LO2 (normal human hepatocytes); assay: MTT cytotoxicity assay, LO2; assay type: cell-based; details: 72 h
Procedure: as §1

[23] = tested on: Taxol-sensitive HCT8 cancer cells; assay: MTT cytotoxicity, taxol-sensitive HCT8; assay type: cell-based; details: 72 h
Procedure: as §1, with “experiments.” for “experiments. Cells include HeLa cells (cervical cancer), MCF-7 (breast cancer), H1299, H1975, A549 and LLC-1 (lung cancer), HepG2 and Hep3B (liver cancer) and LO2 (normal human hepatocytes).”

[24] = Body weight in mouse lung cancer xenograft model; assay type: in vivo; details: IP 40 mg/kg/day, tumor-bearing mice
Source text: The mice were maintained under specific pathogen-free condition in a 12-h light-dark cycle. Experimental conditions were followed in accordance to the “Institutional AnimalCare and User Committee guidelines” of the Macau University of Science and Technology. Xenograft mouse model was constructed as previously described (Wong, V. K. et al., Oncotarget, 2016, 7, 9907-9924). LLC-1 Lewis lung cancer cells (1×10^6 cells) were subcutaneously injected in the right dorsal region of the mice. After tumors grew to about 100 mm^3, the mice were randomly divided into 3 groups: 1) the control group, 2) 40 mg/kg cobalt-polypyridyl complex of Formula (IV) group, and 3) 40 mg/kg cobalt-polypyridyl complex of Formula (IV) as chloride, also referenced as (IV)-Cl (water soluble form) group. The cobalt-polypyridyl complex of Formula (IV) was dissolved in 100 μL buffer (PEG400:EtOH:ddH2O=6:1:3), whereas (IV)-Cl (water soluble form) was dissolved in ddH2O. The complexes were then intraperitoneal injected in mice every day. The body weight of each mouse was recorded with the tumor volume determined by Vernier caliper using the formula of L×W^2×0.52, where L is the longest diameter of tumor and W is the shortest diameter of tumor. Mice with tumor implants were sacrificed after 10 days when the tumor size of vehicle control group reached above 1000 mm^3 due to animal ethical issue.

Row | SMILES | IC50 [1] [µM] | IC50 [2] [µM] | IC50 [3] [µM] | IC50 [4] [µM] | IC50 [5] [µM] | IC50 [6] [µM] | IC50 [7] [µM] | Resistant Factor [7] | IC50 [8] [µM] | IC50 [9] [µM] | IC50 [10] [µM] | Resistant Factor [10] | IC50 [11] [µM] | IC50 [12] [µM] | IC50 [13] [µM] | IC50 [14] [µM] | IC50 [15] [µM] | IC50 [16] [µM] | Resistant Factor [16] | Resistant Factor [17] | other results
1 | F[P-](F)(F)(F)(F)F.F[P-](F)(F)(F)(F)F.[Co+2].c1ccc(-c2ccccn2)nc1.c1ccc(-c2ccccn2)nc1.c1ccc(-c2ccccn2)nc1 [complex (V), [Co^II(N^N)3](PF6)2] | 17.2 | 13.3 | 18.9 | 9.4 | 28.8 | 17 | 7.78 | 0.68 | 29.9 | 29.9 | 29.9 | 1.00 | 6.92 | 13.4 | 15.8 | 34.3 | 24.2 | 16.8 | 1.25 | 0.85 | IC50 [17]: 29.1 µM; IC50 [18]: 31.6 µM; Resistant Factor [18]: 1.10; IC50 [19]: 14.9 µM; Resistant Factor [19]: 0.79; IC50 [20]: 7.85 µM; Resistant Factor [20]: 0.26; IC50 [21]: 26.3 µM; IC50 [22]: 33.6 µM; IC50 [23]: 11.4 µM
2 | F[P-](F)(F)(F)(F)F.F[P-](F)(F)(F)(F)F.F[P-](F)(F)(F)(F)F.[Co+3].c1ccc(-c2ccccn2)nc1.c1ccc(-c2ccccn2)nc1.c1ccc(-c2ccccn2)nc1 [complex (VI), [Co^III(N^N)3](PF6)3] | 29.2 | 22.7 | 42.5 | 14.9 | 55 | 21 | 10.2 | 0.55 | 41.1 | 51.7 | 41.7 | 1.01 | 13.8 | 8.02 | 10.1 | 45.1 | 35.9 | 5.01 | 0.62 | 1.00 | IC50 [17]: 45 µM; IC50 [18]: 54.1 µM; Resistant Factor [18]: 0.98; IC50 [19]: 37.4 µM; Resistant Factor [19]: 0.88; IC50 [20]: 11.1 µM; Resistant Factor [20]: 0.21; IC50 [21]: 37.2 µM; IC50 [22]: 43.7 µM; IC50 [23]: 18.5 µM
3 | Cc1ccnc(-c2cc(C)ccn2)c1.Cc1ccnc(-c2cc(C)ccn2)c1.Cc1ccnc(-c2cc(C)ccn2)c1.[Cl-].[Cl-].[Cl-].[Co+3] [complex (IV)-Cl] |  |  |  |  |  |  |  |  |  |  |  |  |  |  |  |  |  |  |  |  | reduction in body weight [24]: no significant reduction in body weight
